Patent publication US4322348A, “Maytansinoids” (Takeda Chemical Industries, Ltd., priority 1979, dated 1982)
Converted amounts (≈) assume the structure as drawn.

Legend:
Bacillus cereus = assay: growth inhibition, paper disc method, trypticase soy agar; format: cell-based; settings: 8 mm disc, 0.02 ml of a 300 μg/ml solution
Experimental: (§1) The growth inhibitory activity of the compounds against the test organisms is assayed by the paper disc method using a trypticase soy agar (manufactured by Baltimore Biologicals Laboratories, U.S.A.) as the assay medium. That is, the growth inhibitory activity is determined on the plate medium containing the following test organisms using a paper disc (manufactured by Toyo Seisakusho Co. Ltd., thin type, 8 mm in diameter) impregnated with 0.02 ml of a 300 μg/ml solution of C-15003PND-1, PND-2, PND-3 or PND-4.

Bacillus subtillis = assay: as above; format: cell-based; settings: 8 mm disc, 0.02 ml of a 300 μg/ml solution
Experimental: as §1

Escherichia coli = assay: as above; format: cell-based; settings: 8 mm disc, 0.02 ml of a 300 μg/ml solution
Experimental: as §1

Klebsiella pneumoniae = assay: as above; format: cell-based; settings: 8 mm disc, 0.02 ml of a 300 μg/ml solution
Experimental: as §1

Mycobacterium avium = assay: as above; format: cell-based; settings: 8 mm disc, 0.02 ml of a 300 μg/ml solution
Experimental: as §1

Proteus mirabilis = assay: as above; format: cell-based; settings: 8 mm disc, 0.02 ml of a 300 μg/ml solution
Experimental: as §1

Proteus vulgaris = assay: as above; format: cell-based; settings: 8 mm disc, 0.02 ml of a 300 μg/ml solution
Experimental: as §1

Pseudomonas aeruginosa = assay: as above; format: cell-based; settings: 8 mm disc, 0.02 ml of a 300 μg/ml solution
Experimental: as §1

Serratia marcescens = assay: as above; format: cell-based; settings: 8 mm disc, 0.02 ml of a 300 μg/ml solution
Experimental: as §1

Staphylococcus aureus = assay: as above; format: cell-based; settings: 8 mm disc, 0.02 ml of a 300 μg/ml solution
Experimental: as §1

[1] = tested on: Hamigera avellanea IFO 7721; assay: growth inhibition, paper disc method, agar plate; format: cell-based; settings: IFO7721, 8 mm disc, 0.02 ml of a 100 μg/ml solution, pH 7.0, read-out: inhibitory zones
Experimental: Also, the compounds are assayed by the paper disc method using an agar plate [3.5 g of disodiumhydrogen phosphate, 0.5 g of potassium dihydrogen phosphate, 5 g of yeast extract (manufactured by Difco Co.), 10 g of glucose, 15 g of agar, 1000 ml of distilled water, pH 7.0] as a medium for assay and Hamigera avellanea IFO 7721 as a test organism. Thus, the growth inhibitory activity is determined on the plate medium containing the test organism using a paper disc (Toyo Seisakusho Co. Japan, thin type, 8 mm in diameter) impregnated with 0.02 ml of a 100 μg/ml solution of C-15003PND-1, PND-2, PND-3 or PND-4. As a result, C-15003PND-1, PND-2, PND-3 and PND-4 show inhibitory zones of 28 mm, 30 mm, 34 mm and 36 mm, respectively.

Tetrahymena pyriformis W = assay: growth inhibition, liquid dilution method; format: cell-based; settings: 28° C., 44 to 48 hours, pH 7.0, read-out: concentration at which the growth of the test organism is inhibited
Experimental: Further, the growth inhibitory activity of these antibiotics is determined by the liquid dilution method using a medium [20 g of proteose peptone (Difco Co.), 1 g of yeast extract, 2 g of glucose, 1000 ml of distilled water, 10 ml of 1 M phosphate buffer pH 7.0] and Tetrahymena pyriformis W as a test organism with incubation at 28° C. for 44 to 48 hours. As a result, the growth of the above test organism is found to be inhibited at a concentration of 8 μg/ml of C-15003PND-1, 4 μg/ml of C-15003PND-2, 2 μg/ml of C-15003PND-3 and 1 μg/ml of C-15003PND-4.

[2] = tested on: tumor cells leukemia P388; assay: antitumor activity, therapeutic effect on leukemia P388 in mice; format: in vivo; settings: 1×10^6 cells/mouse i.p.; compound i.p. for 9 consecutive days
Experimental: The therapeutic effects of C-15003PND-1, PND-2, PND-3 and PND-4 on tumor cells leukemia P388 (1×10^6 cells/mouse, transplanted intraperitoneally) are determined by administering the compound intraperitoneally for 9 consecutive days.

[3] = acute toxicity test in mice; format: in vivo; settings: intraperitoneal
solubility = format: physicochemical
[4] = in chloroform, ethyl acetate, acetone, ethanol, methanol, pyridine, tetrahydrofuran, dimethyl sulfoxide
[5] = in petroleum ether, n-hexane, water

In the case of `COc1cc2cc(c1Cl)NC(=O)CC(OC(=O)CC(C)C)C1(C)OC1C(C)C1CC(O)(NC(=O)O1)C(OC)C=CC=C(C)C2` (stereo not shown) [C-15003PND-4], the growth inhibitory activity (Bacillus cereus) is reported as “do not show any activity”, the growth inhibitory activity (Bacillus subtillis) is reported as “do not show any activity” and the growth inhibitory activity (Escherichia coli) is reported as “do not show any activity”. For the same molecule, the growth inhibitory activity (Klebsiella pneumoniae) was “do not show any activity”, the growth inhibitory activity (Mycobacterium avium) was “do not show any activity” and the growth inhibitory activity (Proteus mirabilis) was “do not show any activity”. The growth inhibitory activity (Proteus vulgaris) was “do not show any activity”, the growth inhibitory activity (Pseudomonas aeruginosa) was “do not show any activity” and the growth inhibitory activity (Serratia marcescens) was “do not show any activity”. The growth inhibitory activity (Staphylococcus aureus) was “do not show any activity”, the zone of inhibition at 100 µg/mL [1] was 36 mm and the MIC (Tetrahymena pyriformis W) was 1 µg/mL (≈ 1.57 µM). For the same molecule, the life-prolonging effect [2] was “a life-prolonging effect”, the “estimated LD0” value [3] was 0.313 mg/kg and the “estimated LD100” value [3] was 2.5 mg/kg. The Solubility (solubility; [4]) was “Soluble” and the Solubility (solubility; [5]) was “Insoluble”.
With `COc1cc2cc(c1Cl)NC(=O)CC(O)C1(C)OC1C(C)C1CC(O)(NC(=O)O1)C(OC)C=CC=C(C)C2` (stereo not shown) [C-15003PND-0] the Solubility (solubility; in chloroform, ethyl acetate, acetone, ethanol, pyridine, tetrahydrofuran, dimethyl sulfoxide) was “Soluble” and the Solubility (solubility; [5]) was “Insoluble”.
With `COc1cc2cc(c1Cl)NC(=O)CC(OC(C)=O)C1(C)OC1C(C)C1CC(O)(NC(=O)O1)C(OC)C=CC=C(C)C2` (stereo not shown) [C-15003PND-1] the growth inhibitory activity (Bacillus cereus) was “do not show any activity”, the growth inhibitory activity (Bacillus subtillis) was “do not show any activity” and the growth inhibitory activity (Escherichia coli) was “do not show any activity”. For the same molecule, the growth inhibitory activity (Klebsiella pneumoniae) was “do not show any activity”, the growth inhibitory activity (Mycobacterium avium) was “do not show any activity” and the growth inhibitory activity (Proteus mirabilis) was “do not show any activity”. The growth inhibitory activity (Proteus vulgaris) was “do not show any activity”, the growth inhibitory activity (Pseudomonas aeruginosa) was “do not show any activity” and the growth inhibitory activity (Serratia marcescens) was “do not show any activity”. The growth inhibitory activity (Staphylococcus aureus) was “do not show any activity”, the zone of inhibition at 100 µg/mL [1] was 28 mm and the MIC (Tetrahymena pyriformis W) was 8 µg/mL (≈ 13.5 µM). For the same molecule, the life-prolonging effect [2] was “a life-prolonging effect”, the “estimated LD0” value [3] was 0.313 mg/kg and the “estimated LD100” value [3] was 2.5 mg/kg. The Solubility (solubility; [4]) was “Soluble” and the Solubility (solubility; [5]) was “Insoluble”.
In the case of `CCC(=O)OC1CC(=O)Nc2cc(cc(OC)c2Cl)CC(C)=CC=CC(OC)C2(O)CC(OC(=O)N2)C(C)C2OC12C` (stereo not shown) [C-15003PND-2], the growth inhibitory activity (Bacillus cereus) is reported as “do not show any activity”, the growth inhibitory activity (Bacillus subtillis) is reported as “do not show any activity” and the growth inhibitory activity (Escherichia coli) is reported as “do not show any activity”. For the same molecule, the growth inhibitory activity (Klebsiella pneumoniae) was “do not show any activity”, the growth inhibitory activity (Mycobacterium avium) was “do not show any activity” and the growth inhibitory activity (Proteus mirabilis) was “do not show any activity”. The growth inhibitory activity (Proteus vulgaris) was “do not show any activity”, the growth inhibitory activity (Pseudomonas aeruginosa) was “do not show any activity” and the growth inhibitory activity (Serratia marcescens) was “do not show any activity”. For the same molecule, the growth inhibitory activity (Staphylococcus aureus) was “do not show any activity”, the zone of inhibition at 100 µg/mL [1] was 30 mm and the MIC (Tetrahymena pyriformis W) was 4 µg/mL (≈ 6.59 µM). For the same molecule, the life-prolonging effect [2] was “a life-prolonging effect”, the “estimated LD0” value [3] was 0.313 mg/kg and the “estimated LD100” value [3] was 2.5 mg/kg. For the same molecule, the Solubility (solubility; [4]) was “Soluble” and the Solubility (solubility; [5]) was “Insoluble”.
In the case of `COc1cc2cc(c1Cl)NC(=O)CC(OC(=O)C(C)C)C1(C)OC1C(C)C1CC(O)(NC(=O)O1)C(OC)C=CC=C(C)C2` (stereo not shown) [C-15003PND-3], the growth inhibitory activity (Bacillus cereus) is reported as “do not show any activity”, the growth inhibitory activity (Bacillus subtillis) is reported as “do not show any activity” and the growth inhibitory activity (Escherichia coli) is reported as “do not show any activity”. For the same molecule, the growth inhibitory activity (Klebsiella pneumoniae) was “do not show any activity”, the growth inhibitory activity (Mycobacterium avium) was “do not show any activity” and the growth inhibitory activity (Proteus mirabilis) was “do not show any activity”. The growth inhibitory activity (Proteus vulgaris) was “do not show any activity”, the growth inhibitory activity (Pseudomonas aeruginosa) was “do not show any activity” and the growth inhibitory activity (Serratia marcescens) was “do not show any activity”. For the same molecule, the growth inhibitory activity (Staphylococcus aureus) was “do not show any activity”, the zone of inhibition at 100 µg/mL [1] was 34 mm and the MIC (Tetrahymena pyriformis W) was 2 µg/mL (≈ 3.22 µM). For the same molecule, the life-prolonging effect [2] was “a life-prolonging effect”, the “estimated LD0” value [3] was 0.313 mg/kg and the “estimated LD100” value [3] was 2.5 mg/kg. For the same molecule, the Solubility (solubility; [4]) was “Soluble” and the Solubility (solubility; [5]) was “Insoluble”.
